# Results reported in ChEMBL document CHEMBL1133561, “A novel class of potent 3-isoxazolol GABA(A) antagonists: design, synthesis, and pharmacology” (J Med Chem, 2000).
# What was measured:
# [1] = target: GABA-A receptor; anion channel; test: In vitro inhibition of [3H]muscimol to rat brain synaptic membranes; type: cell membranes, Membrane
# [2] = target: GABA-A receptor; anion channel; test: Inhibition of Gamma-aminobutyric acid A (GABA-A) receptor in vitro by whole-cell patch-clamp recording in cultured cerebral cortical neurones; type: functional, Rattus norvegicus
# [3] = target: GABA-A receptor; anion channel; test: Inhibition against Gamma-aminobutyric acid A (GABA-A) receptor; type: protein-complex assay, Rattus norvegicus
SMILES,Ki [1],IC50 [2],IC50 [3]
CCc1c(O)noc1C1CCNCC1,6.3 µM,–,–
Oc1noc(C2CCNCC2)c1Cc1ccccc1,3.8 µM,4 µM,–
Cc1c(O)noc1C1CCNCC1,10 µM,–,–
Cc1c(O)noc1CN,–,–,> 100 µM

# Second part, led by results:
Ki [1],IC50 [2],SMILES,IC50 [3]
0.49 µM,–,Oc1noc(C2CCNCC2)c1CCc1ccc2ccccc2c1,–
0.049 µM,–,Oc1noc(C2CCNCC2)c1Cc1ccc2ccccc2c1,–
5.9 µM,–,Oc1noc(C2CCNCC2)c1Cc1c2ccccc2cc2ccccc12,–
